Assay results from patent US20120029003A1, “GALECTIN-3 AND STATIN THERAPY” (BG Medicine, Inc., priority 2010, published 2012).

Columns and labels:
[1] = test system: heart failure patients; conditions: unselected heart failure patients; CORONA and GISSI-HF trials; cited from earlier work
[2] = test system: patients with chronic heart failure (HF); assay: Clinical trial of rosuvastatin vs placebo in chronic heart failure, analysed by baseline galectin-3 category; type: in vivo, human
Source text: A clinical trial enrolled patients with chronic heart failure (HF) (New York Heart Association functional class II, III or IV) and with left ventricular ejection fraction less than or equal to 40% (less than or equal to 35% for patients in New York Heart Association functional class II). The design and primary results of the trial are reported in published literature [J. Kjekshus et al., “Rosuvastatin in Older Patients with Systolic Heart Failure.” N Engl J. Med. 2007 Nov. 29; 357(22):2248-61]. Patients were randomly assigned to receive 10 milligrams of rosuvastatin or placebo per day. Of the patients in the trial, a subset of 1,462 subjects also participated in a sub-study in which blood was collected at baseline, defined as the time of enrollment in the trial. Baseline galectin-3 levels were evaluated in these […] subjects.
Blood plasma samples were drawn at baseline from participants in a non-fasting state. All samples were stored at −80° C. Plasma galectin-3 levels were determined on these plasma specimens using a commercial enzyme-linked immunosorbent assay (BGM Galectin-3 Assay; BG Medicine, Waltham, Mass.) according to the manufacturer's instructions.
Determination of galectin-3 concentration in serum samples was assessed using ELISA kits (BGM Galectin-3 Assay; BG Medicine Inc., Waltham, Mass., USA). The assay sensitivity (lowest concentration different from zero) was 0.96 ng/mL. Intra- and inter-assay variations were less than 8% and 10% respectively.
For the main objective of investigating the effects of rosuvastatin treatment according to baseline galectin-3 level, galectin-3 categories were defined based on the median baseline value across all 1,462 subjects for whom a galectin-3 measurement was available. For each of six endpoints, a formal interaction test was conducted within a Cox proportional hazards model comprising treatment group (binary variable), galectin-3 category (dichotomous variable), and the interaction term. Subsequently, Cox proportional hazards models were used to estimate the hazard ratios (HRs) and 95% confidence intervals (CIs) comparing rosuvastatin and placebo treatments by galectin-3 categories. Fully adjusted models included the following 11 covariates, all evaluated at baseline: age (per year), gender, LVEF (per unit), NYHA class (due to the small number of subjects with class IV, class III and IV were combined), body mass index (BMI) (per unit), diabetes mellitus (yes/no), intermittent claudication (yes/no), heart rate (per unit), estimated glomerular filtration rate (eGFR) (per unit), the ratio of apolipoprotein B to apolipoprotein A1, and N-terminal B-type natriuretic peptide (NT-proBNP) (the variable NT-proBNP was logarithmically transformed using base e). Incident event rates were analyzed using Poisson regression. Baseline characteristics were compared by galectin-3 category using Student's t-test for variables expressed as means and standard deviation. All P-values are two two-tailed. All analyses were performed with SAS software, version 9.1 (SAS Institute), or R software, version 2.

CC(C)c1nc(N(C)S(C)(=O)=O)nc(-c2ccc(F)cc2)c1/C=C/[C@@H](O)C[C@@H](O)CC(=O)O [Rosuvastatin, rosuvastatin]
clinical benefit of statin therapy in heart failure patients [1]: did not demonstrate a significant clinical benefit
Rate of subjects experiencing the primary outcome, Rosuvastatin rate ([2]; Galectin-3 > 19.0 ng/mL, 728 subjects): 15.1 per 100 person-years of follow-up
Rate of subjects experiencing the primary outcome, Rosuvastatin rate ([2]; Galectin-3 ≦ 19.0 ng/mL, 734 subjects): 7.8 per 100 person-years of follow-up
hazard ratio (HR) for the primary endpoint, rosuvastatin compared to placebo ([2]; baseline galectin-3 >19.0 ng/mL (N=728), 10 mg rosuvastatin per day, adjusted HR): 1.07
rate of primary events ([2]; baseline galectin-3 >19.0 ng/mL, rosuvastatin group, 10 mg per day): 15.1 events per 100 patient-years
hazard ratio (HR) for the primary endpoint (earlier of cardiovascular death, non-fatal myocardial infarction or non-fatal stroke), rosuvastatin compared to placebo ([2]; baseline galectin-3 less than or equal to 19.0 ng/mL (N=734), 10 mg rosuvastatin per day, adjusted for 11 clinical and biochemical covariates): 0.65
difference in rate of primary events, rosuvastatin compared to placebo ([2]; baseline galectin-3 less than or equal to 19.0 ng/mL, 7.8 vs 11.2 events per 100 patient-years): 30.4%
rate of primary events ([2]; baseline galectin-3 less than or equal to 19.0 ng/mL, subjects randomized to rosuvastatin 10 mg per day): 7.8 events per 100 patient-years
